Holding throughout (format): biochemical
One assay addresses human cathepsin L (CatL) (Homo sapiens (Human), UniProt P07711). Description: CatL functional enzyme assay. Particulars: read-out: hCatL, inhibition [%] at 31.6 μM.
For the next assay, the target named is human cathepsin S (CatS) (Homo sapiens (Human), UniProt P25774). Put plainly: CatS functional enzyme assay. Particulars: for Selectivity Ki(hCatS)/Ki(hCatK): ratio Ki(hCatS)/Ki(hCatK); for Ki: recombinant human CatS, substrate Z-VVR-AMC 5 μM, pH 6.5, Ki by Cheng Prusoff equation, read-out: hCatS, Ki. The method in brief:
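Recombinant human enzymes were incubated 10 min at RT with AMC substrate: CatS 0.0007 mU/well with Z-VVR-AMC 5 µM; CatK 0.00175 mU/well with Z-FR-AMC 40 µM; CatL 0.000874 mU/well with Z-VVR-AMC 40 µM. Fluorescence gave IC50, converted to Ki by Cheng-Prusoff.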

The target in the next assay is human cathepsin K (CatK) (Homo sapiens (Human), UniProt P43235). Description: CatK functional enzyme assay. Particulars: recombinant human CatK, substrate Z-FR-AMC 40 μM, pH 5.5; Ki by Cheng Prusoff equation; read-out: hCatK, Ki. The method, boiled down:
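Recombinant human enzymes in 50 mM NaOAc, 10 mM EDTA, 1 mM DTT, 0.01% Triton X-100, pH 5.5, 10 min at RT. CatK: 0.00175 mU/well with 40 μM Z-FR-AMC; CatL: 0.000874 mU/well with 40 μM Z-VVR-AMC. AMC fluorescence read; IC50 converted to Ki via Cheng–Prusoff.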

human cathepsin S (CatS), sequence (P25774 115-331): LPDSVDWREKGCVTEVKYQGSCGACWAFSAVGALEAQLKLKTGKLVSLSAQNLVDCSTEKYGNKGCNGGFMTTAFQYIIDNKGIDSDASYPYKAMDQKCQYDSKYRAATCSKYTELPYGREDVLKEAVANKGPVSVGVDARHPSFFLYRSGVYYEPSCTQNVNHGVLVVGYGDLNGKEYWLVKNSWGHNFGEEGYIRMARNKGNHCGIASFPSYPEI
human cathepsin L (CatL), sequence (P07711 114-333): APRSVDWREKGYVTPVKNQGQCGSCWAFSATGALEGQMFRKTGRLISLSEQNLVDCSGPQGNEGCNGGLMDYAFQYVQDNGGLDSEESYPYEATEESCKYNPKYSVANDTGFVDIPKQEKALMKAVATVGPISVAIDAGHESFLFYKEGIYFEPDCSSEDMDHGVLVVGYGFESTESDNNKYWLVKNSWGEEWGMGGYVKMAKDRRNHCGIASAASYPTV
human cathepsin K (CatK), sequence (P43235 115-329): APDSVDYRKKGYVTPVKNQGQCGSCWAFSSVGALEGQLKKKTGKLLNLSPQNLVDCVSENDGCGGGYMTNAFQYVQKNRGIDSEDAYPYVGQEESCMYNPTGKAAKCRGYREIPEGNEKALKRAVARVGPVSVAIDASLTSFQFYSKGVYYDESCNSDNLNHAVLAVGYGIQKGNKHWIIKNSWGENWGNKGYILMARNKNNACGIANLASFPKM

Regarding `O=C(N[C@H](C(=O)N1C[C@H](Cl)[C@H]2OCC(=O)[C@H]21)C1CCCCC1)c1ncc(-c2cncc(F)c2)s1` [Example 47, N-((S)-2-((3aS,6S,6aS)-6-chloro-3-oxotetrahydro-2H-furo[3,2-b]pyrrol-4(5H)-yl)-1-cyclohexyl-2-oxoethyl)-5-(5-fluoropyridin-3-yl)thiazole-2-carboxamide], the inhibition (as a rule, the relative decrease from the control value, in per cent) at 31.6 µM on human cathepsin L (CatL) was 28%. For the same compound, on human cathepsin S (CatS), the “Selectivity Ki(hCatS)/Ki(hCatK)” value is 11.1; the Ki (as a rule, the dissociation constant of the complex between target and ligand, obtained from inhibition or displacement) was 221 nM. Besides, at human cathepsin K (CatK), the Ki was found to be 20 nM.
For the compound `Cc1nc(-c2cnccn2)sc1C(=O)N[C@H](C(=O)N1C[C@H](Cl)[C@H]2OCC(=O)[C@H]21)C1CCCCC1` [Example 22, N-((S)-2-((3aS,6S,6aS)-6-chloro-3-oxotetrahydro-2H-furo[3,2-b]pyrrol-4(5H)-yl)-1-cyclohexyl-2-oxoethyl)-4-methyl-2-(pyrazin-2-yl)thiazole-5-carboxamide], the inhibition at 31.6 µM at human cathepsin L (CatL) was 17%. Also, the inhibition at 10 µM on human cathepsin S (CatS) (read-out: hCatS, inhibition [%] at 10 μM) is 73%. Further, the inhibition constant Ki at human cathepsin K (CatK) is 37 nM.
For `O=C(N[C@H](C(=O)N1C[C@H](Cl)[C@H]2OCC(=O)[C@H]21)C1CCCCC1)c1ncc(-c2cnc(C3CC3)nc2)s1` [Example 57, N-((S)-2-((3aS,6S,6aS)-6-chloro-3-oxotetrahydro-2H-furo[3,2-b]pyrrol-4(5H)-yl)-1-cyclohexyl-2-oxoethyl)-5-(2-cyclopropylpyrimidin-5-yl)thiazole-2-carboxamide], the inhibition at 31.6 µM at human cathepsin L (CatL) is 23%. Also, on human cathepsin S (CatS), the “Selectivity Ki(hCatS)/Ki(hCatK)” value is recorded as 3.6 and the Ki is 150 nM. Further, the Ki at human cathepsin K (CatK) is 42 nM.
For `COc1cc(-c2ccc(C(=O)N[C@H](C(=O)N3C[C@H](Cl)[C@H]4OCC(=O)[C@H]43)C3CCCCC3)s2)cnn1` [Example 71, N-((S)-2-((3aS,6S,6aS)-6-chloro-3-oxotetrahydro-2H-furo[3,2-b]pyrrol-4(5H)-yl)-1-cyclohexyl-2-oxoethyl)-5-(6-methoxypyridazin-4-yl)thiophene-2-carboxamide], the inhibition at 31.6 µM at human cathepsin L (CatL) was determined as 32%. Besides, at human cathepsin S (CatS), the “Selectivity Ki(hCatS)/Ki(hCatK)” value is on record as 3.0. Besides, the values for the inhibition constant (Ki) at human cathepsin S (CatS) and at human cathepsin K (CatK) were 23 nM and 8 nM, respectively.
The corresponding values for `COc1cnnc(-c2ccc(C(=O)N[C@H](C(=O)N3C[C@H](Cl)[C@H]4OCC(=O)[C@H]43)C3CCCCC3)s2)c1` [Example 72, N-((S)-2-((3aS,6S,6aS)-6-chloro-3-oxotetrahydro-2H-furo[3,2-b]pyrrol-4(5H)-yl)-1-cyclohexyl-2-oxoethyl)-5-(5-methoxypyridazin-3-yl)thiophene-2-carboxamide] are 30%, 1.4, 55 nM and 39 nM.
In the case of `Cc1cnncc1-c1ccc(C(=O)N[C@H](C(=O)N2C[C@H](Cl)[C@H]3OCC(=O)[C@H]32)C2CCCCC2)s1` [Example 90, N-((S)-2-((3aS,6S,6aS)-6-chloro-3-oxotetrahydro-2H-furo[3,2-b]pyrrol-4(5H)-yl)-1-cyclohexyl-2-oxoethyl)-5-(5-methylpyridazin-4-yl)thiophene-2-carboxamide], the inhibition at 31.6 µM at human cathepsin L (CatL) was found to be 20%. Besides, the “Selectivity Ki(hCatS)/Ki(hCatK)” value at human cathepsin S (CatS) is listed as 7.3. In addition, the Ki at human cathepsin S (CatS) was found to be 73 nM; on human cathepsin K (CatK), 10 nM.
Regarding `Cc1cnnc(-c2ccc(C(=O)N[C@H](C(=O)N3C[C@H](Cl)[C@H]4OCC(=O)[C@H]43)C3CCCCC3)s2)c1` [Example 44, N-((S)-2-((3aS,6S,6aS)-6-chloro-3-oxotetrahydro-2H-furo[3,2-b]pyrrol-4(5H)-yl)-1-cyclohexyl-2-oxoethyl)-5-(5-methylpyridazin-3-yl)thiophene-2-carboxamide], on human cathepsin L (CatL), the inhibition at 31.6 µM came out at 33%. Besides, at human cathepsin S (CatS), the “Selectivity Ki(hCatS)/Ki(hCatK)” value is recorded as 4.7. Besides, the inhibitory constant (Ki) at human cathepsin S (CatS) was 70 nM; on human cathepsin K (CatK), 15 nM.
Take `O=C(N[C@H](C(=O)N1C[C@H](Cl)[C@H]2OCC(=O)[C@H]21)C1CCCCC1)c1ncc(-c2ccncc2F)s1` [Example 50, N-((S)-2-((3aS,6S,6aS)-6-chloro-3-oxotetrahydro-2H-furo[3,2-b]pyrrol-4(5H)-yl)-1-cyclohexyl-2-oxoethyl)-5-(3-fluoropyridin-4-yl)thiazole-2-carboxamide]: the inhibition at 31.6 µM on human cathepsin L (CatL) stood at 15%. Also, the “Selectivity Ki(hCatS)/Ki(hCatK)” value at human cathepsin S (CatS) came to 66.6. Also, the inhibition constant (Ki) on human cathepsin S (CatS) is 733 nM; at human cathepsin K (CatK), 11 nM.
As to `O=C(N[C@H](C(=O)N1C[C@H](Cl)[C@H]2OCC(=O)[C@H]21)C1CCCCC1)c1ncc(-c2ccncc2)s1` [Example 49, N-((S)-2-((3aS,6S,6aS)-6-chloro-3-oxotetrahydro-2H-furo[3,2-b]pyrrol-4(5H)-yl)-1-cyclohexyl-2-oxoethyl)-5-(pyridin-4-yl)thiazole-2-carboxamide], at human cathepsin L (CatL), the inhibition at 31.6 µM is 4%. On human cathepsin S (CatS), the “Selectivity Ki(hCatS)/Ki(hCatK)” value is recorded as 41.8 and the Ki came to 376 nM. Also, on human cathepsin K (CatK), the Ki stood at 9 nM.
The corresponding values for `O=C(N[C@H](C(=O)N1C[C@H](Cl)[C@H]2OCC(=O)[C@H]21)C1CCCCC1)c1ccc(-c2cncnc2)o1` [Example 11, N-((S)-2-((3aS,6S,6aS)-6-chloro-3-oxotetrahydro-2H-furo[3,2-b]pyrrol-4(5H)-yl)-1-cyclohexyl-2-oxoethyl)-5-(pyrimidin-5-yl)furan-2-carboxamide] are 14%, 1.1, 99 nM and 87 nM.
Regarding `O=C(N[C@H](C(=O)N1C[C@H](Cl)[C@H]2OCC(=O)[C@H]21)C1CCCCC1)c1ccc(-c2ccnc(C3CC3)c2)s1` [Example 66, N-((S)-2-((3aS,6S,6aS)-6-chloro-3-oxotetrahydro-2H-furo[3,2-b]pyrrol-4(5H)-yl)-1-cyclohexyl-2-oxoethyl)-5-(2-cyclopropylpyridin-4-yl)thiophene-2-carboxamide], the inhibition at 31.6 µM on human cathepsin L (CatL) came to 3%. Further, the “Selectivity Ki(hCatS)/Ki(hCatK)” value on human cathepsin S (CatS) is 5.0. Also, the figures for the inhibition constant (Ki) on human cathepsin S (CatS) and on human cathepsin K (CatK) were 34 nM and 7 nM, respectively.
Consider `O=C(N[C@H](C(=O)N1C[C@H](Cl)[C@H]2OCC(=O)[C@H]21)C1CCCCC1)c1ccc(-c2cnc(C(F)(F)F)nc2)s1` [Example 61, N-((S)-2-((3aS,6S,6aS)-6-chloro-3-oxotetrahydro-2H-furo[3,2-b]pyrrol-4(5H)-yl)-1-cyclohexyl-2-oxoethyl)-5-(2-(trifluoromethyl)pyrimidin-5-yl)thiophene-2-carboxamide], for which, at human cathepsin L (CatL), the inhibition at 31.6 µM was 0%. For the same compound, the “Selectivity Ki(hCatS)/Ki(hCatK)” value at human cathepsin S (CatS) stood at 4.0. Moreover, the figures for the Ki on human cathepsin S (CatS) and on human cathepsin K (CatK) were 302 nM and 76 nM, respectively.
For `CS(=O)(=O)c1cnnc(-c2ccc(C(=O)N[C@H](C(=O)N3C[C@H](Cl)[C@H]4OCC(=O)[C@H]43)C3CCCCC3)s2)c1` [Example 78, N-((S)-2-((3aS,6S,6aS)-6-chloro-3-oxotetrahydro-2H-furo[3,2-b]pyrrol-4(5H)-yl)-1-cyclohexyl-2-oxoethyl)-5-(5-(methylsulfonyl)pyridazin-3-yl)thiophene-2-carboxamide], at human cathepsin L (CatL), the inhibition at 31.6 µM is 21%. Moreover, at human cathepsin S (CatS), the “Selectivity Ki(hCatS)/Ki(hCatK)” value is reported as 0.8 and the Ki is 16 nM. The Ki at human cathepsin K (CatK) worked out at 20 nM.
Consider `O=C(N[C@H](C(=O)N1C[C@H](Cl)[C@H]2OCC(=O)[C@H]21)C1CCCCC1)c1ccc(-c2ccnnc2)o1` [Example 19, N-((S)-2-((3aS,6S,6aS)-6-chloro-3-oxotetrahydro-2H-furo[3,2-b]pyrrol-4(5H)-yl)-1-cyclohexyl-2-oxoethyl)-5-(pyridazin-4-yl)furan-2-carboxamide], for which the inhibition at 31.6 µM on human cathepsin L (CatL) amounted to 12%. In addition, on human cathepsin S (CatS), the “Selectivity Ki(hCatS)/Ki(hCatK)” value was found to be 0.8 and the Ki turned out to be 74 nM. In addition, on human cathepsin K (CatK), the Ki worked out at 93 nM.
In the case of `Cc1ncc(-c2cnc(C(=O)N[C@H](C(=O)N3C[C@H](Cl)[C@H]4OCC(=O)[C@H]43)C3CCCCC3)s2)cn1` [Example 41, N-((S)-2-((3aS,6S,6aS)-6-chloro-3-oxotetrahydro-2H-furo[3,2-b]pyrrol-4(5H)-yl)-1-cyclohexyl-2-oxoethyl)-5-(2-methylpyrimidin-5-yl)thiazole-2-carboxamide], the inhibition at 31.6 µM at human cathepsin L (CatL) came to 25%. For the same compound, the Ki at human cathepsin S (CatS) worked out at 144 nM; on human cathepsin K (CatK), 26 nM.
Turning to `Cc1cc(-c2ccc(C(=O)N[C@H](C(=O)N3C[C@H](Cl)[C@H]4OCC(=O)[C@H]43)C3CCCCC3)s2)c(C)cn1` [Example 88, N-((S)-2-((3aS,6S,6aS)-6-chloro-3-oxotetrahydro-2H-furo[3,2-b]pyrrol-4(5H)-yl)-1-cyclohexyl-2-oxoethyl)-5-(2,5-dimethylpyridin-4-yl)thiophene-2-carboxamide], the inhibition at 31.6 µM on human cathepsin L (CatL) was determined as 0%. At human cathepsin S (CatS), the “Selectivity Ki(hCatS)/Ki(hCatK)” value stood at 18.6. For the same compound, the Ki was 335 nM at human cathepsin S (CatS) and 18 nM at human cathepsin K (CatK).

Source of the values: US9725459B2, “3-oxo-tetrahydro-furo[3,2-B]pyrrol-4(5H)-yl) derivatives I” (GRÜNENTHAL GMBH, priority 2014, dated 2017).
